Values quoted from earlier work, collected in patent publication US11504416B2, “Formulation with cannabinoids” (PAW POWER, INC., priority 2018, dated 2022).

Legend:
[1] = intra-articular injection, high molecular weight (>5×10^6 Da)

Row | Compound | gastrointestinal absorption (administered orally) | time to peak levels in the bloodstream (after oral ingestion) | tissue distribution of ingested glucosamine (oral ingestion) | function in subjects with osteoarthritis or rheumatoid arthritis [1]
1 | N[C@H]1C(O)O[C@H](CO)[C@@H](O)[C@@H]1O (stereo partly shown) [Glucosamine] | readily absorbed | ≤ 8 h | localizes to cartilage and joint tissues | 
2 | hyaluronic acid |  |  |  | improves function
